Results on 14 compounds are retold here after US6538013B2, “Acyclic and cyclic guanidine-and acetamidine derivatives, their preparation and their use as pesticides, esp. as parasiticides” (Novartis Animal Health US, Inc., priority 1998, dated 2003).

Common to all, as to type: in vivo
The test system of data set [1] is cat fleas [Ctenocephalides felis (Bouche)]. Kind of data set: Control of adult fleas in cats by means of pour-on application. The conditions noted are these: for action against adult fleas: pour-on on back of neck, 20 mg of active ingredient per kg body weight; for long-term action / long-term activity against adult fleas: evaluated up to day +63. The method, then:
Test protocol for each test compound: in order to determine the effectiveness of the test compounds against fully grown fleas, four groups each of two cats are used. Each cat is infested with 100 cat fleas [Ctenocephalides felis (Bouche)] and treated with 20 mg of active ingredient per kg body weight. The treatment is effected by applying the formulation to a locally limited area on the back of the cat's neck. While one group is infested with fleas but is treated only with a placebo, that is to say a formulation without active ingredient, and serves as control, another group is treated with nitenpyram as comparison substance; the two remaining groups receive the test compounds. Evaluation is made in each case by combing surviving fleas out of the animal's coat and comparing the number counted with the number of fleas in the control group and in the group treated with nitenpyram. The procedure in detail is as follows: each cat is infested with 100 fleas immediately after treatment on day 0. On day +1, each animal is combed and the number of surviving fleas is determined; the surviving fleas are then replaced on the same cat and after 24 hours the combing and evaluation are repeated. The fleas still surviving after those 24 hours are not returned to the cat. The described procedure is then repeated on days +3, +7, +9, +14, +21, +28, +35, +42, +49, +56 and +63 and in this way the effectiveness and duration of action are determined. The effectiveness is determined in accordance with the following formula: [formula]

The test system is the same in data set [2]. Kind of data set: Control of adult fleas in cats by means of subcutaneous injection. The conditions noted are these: for action against adult fleas: subcutaneous injection behind left shoulder blade. Here is the method: Test protocol for each test compound: in order to determine the effectiveness of the test compounds against fully grown fleas, four groups each of two cats from 1.5 to 4 years of age are used. Each cat is infested with 100 cat fleas [Ctenocephalides felis (Bouche)]. Two groups are treated with 20 mg of active ingredient per kg body weight. The treatment is effected by subcutaneous injection of a solution of the active ingredient behind the left shoulder blade. While one group is infested with fleas but is treated only with a placebo, that is to say a formulation without active ingredient, and serves as control, another group is treated with nitenpyram as comparison substance. Evaluation is made in each case by combing surviving fleas out of the animal's coat and comparing the number counted with the number of fleas in the control group and in the group treated with nitenpyram. The procedure in detail is as follows: each cat is infested with 100 fleas immediately after treatment on day 0. On day +1, each animal is combed and the number of surviving fleas is determined; the surviving fleas are then replaced on the same cat and after 24 hours the combing and evaluation are repeated. The fleas still surviving after those 24 hours are not returned to the cat. The described procedure is then repeated on days +3, +7, +9, +14, +21 and +28 and in this way the effectiveness and duration of action is determined. The effectiveness is determined using the same formula as in the preceding Example.

For data set [3], the system named is dog fleas [Ctenocephalides canis]. Kind of data set: Control of adult fleas in dogs by means of pour-on application. The source says: In dogs the test proceeds in an entirely analogous manner. In order to investigate the total action and any side-effects after administration in the form of a pour-on formulation, compound No. 1.008 is selected and tested on 11 dogs. The test protocol and the results are given in Example 7.
Test protocol for each test compound: in order to determine the effectiveness of the test compounds against fully grown fleas, three groups each of three dogs (1 male and 2 female beagles) are used; one group consists of two dogs (2 male beagles) and serves as control group. The entire test group consists of 11 beagles between 1 and 3.5 years of age. Each dog is infested with a total of 100 dog fleas [Ctenocephalides canis], 50 male and 50 female. Group 1 is treated with 2 mg, group 2 with 10 mg and group 3 with 20 mg of active ingredient per kg body weight. The treatment is effected by applying the pour-on formulation to a locally limited area on the back of the dog's neck. The fourth group is the control group. The latter is infested with fleas but is treated only with a placebo, that is to say a formulation without active ingredient, and serves for control purposes. Evaluation is made in each case by combing surviving fleas out of the animal's coat and comparing the number counted with the number of fleas in the control group. The procedure in detail is as follows: after treatment with the test formulation (day 0) each dog is infested on each of the subsequent days +1, +7, +14, +23, +28, +35, +49, +56, +63, +70, +77, +84 and +98 with 100 fleas. On the following day, each animal is combed and the number of surviving fleas is determined. The surviving fleas are then replaced on the same dog and after 24 hours the combing and evaluation are repeated. The fleas still surviving after those further 24 hours (2nd day after infestation with 100 fleas) are not returned to the dog. Then on days +3, +7, +9, +14, +21, +28, +35, +42 etc. the described procedure is repeated and in this way the effectiveness and the duration of action are determined. The effectiveness is determined using the formula given in Example 6.

Take `CCN(Cc1ccc(Cl)nc1)C(=C[N+](=O)[O-])N(C)C(=O)OCOC(C)=O` [Compound 1.001]: the “action against adult fleas” value in data set [1] is recorded as “Very good action”; in data set [2] (cats, 20 mg/kg body weight), “Very good action”.
Regarding `CCCCC(=O)OCOC(=O)N(C)C(=C[N+](=O)[O-])N(CC)Cc1ccc(Cl)nc1` [Compound 1.008], in data set [3] (dogs (beagles), pour-on, groups 2, 10 and 20 mg/kg (group not stated), 79 days after application), the “action (effectiveness) against fleas” value stood at 100%. Moreover, the effectiveness against fleas was determined as 98.6% in data set [3] (dogs (beagles), pour-on, groups 2, 10 and 20 mg/kg (group not stated), day 86); 92.3% in data set [3] (dogs (beagles), pour-on, groups 2, 10 and 20 mg/kg (group not stated), day 98). For the same compound, in data set [3] (dogs of the three test groups, pour-on 2, 10 and 20 mg/kg body weight), the “skin irritation or other undesirable side-effects” value was “no skin irritation or any other undesirable side-effects”. Also, the “action against adult fleas” value in data set [1] is given as “Very good action”; in data set [2] (cats, 20 mg/kg body weight), “Very good action”. The “action (effectiveness) to which it gradually declines after 7 weeks” value (shortened to “action (effectiveness) … after 7 weeks”) in data set [1] (pour-on, 20 mg/kg body weight) is reported as 26%. The “long-term action / long-term activity against adult fleas” value (from here on “long-term action / long-term activity”) in data set [1] (pour-on, 20 mg/kg body weight) is reported as “especially high level of long-term activity”.
For the compound `CCCCCCCC(=O)OCOC(=O)N(C)C(=C[N+](=O)[O-])N(CC)Cc1ccc(Cl)nc1` [Compound 1.011], the “action against adult fleas” value in data set [1] is recorded as “Very good action”. In data set [1] (pour-on, 20 mg/kg body weight), the “action (effectiveness) … after 7 weeks” value amounted to 26% and the “long-term action / long-term activity” value is recorded as “especially high level of long-term activity”. In data set [2] (cats, 20 mg/kg body weight), the “action against adult fleas” value is “Very good action”.
Take `CCCCCCCCCCCC(=O)OCOC(=O)N(C)C(=C[N+](=O)[O-])N(CC)Cc1ccc(Cl)nc1` [Compound 1.012]: the “action against adult fleas” value in data set [1] was “Very good action”; in data set [2] (cats, 20 mg/kg body weight), “Very good action”. Also, the “action (effectiveness) … after 7 weeks” value in data set [1] (pour-on, 20 mg/kg body weight) amounted to 26%. Besides, the “long-term action / long-term activity” value is “especially high level of long-term activity” in data set [1] (pour-on, 20 mg/kg body weight) and “especially high level of long-term activity” in data set [2] (cats, subcutaneous injection, 20 mg/kg body weight, evaluated up to day +28). Besides, the “period of full action” value in data set [2] (cats, subcutaneous injection, 20 mg/kg body weight) is “at least 20 days”.
As for `CCCCCCCCCCCCCC(=O)OCOC(=O)N(C)C(=C[N+](=O)[O-])N(CC)Cc1ccc(Cl)nc1` [Compound 1.013], the “action against adult fleas” value in data set [1] is “Very good action”; in data set [2] (cats, 20 mg/kg body weight), “Very good action”.
As to `CCCCCCCCCCCCCCCC(=O)OCOC(=O)N(C)C(=C[N+](=O)[O-])N(CC)Cc1ccc(Cl)nc1` [Compound 1.014], the “action against adult fleas” value in data set [1] is recorded as “Very good action”; in data set [2] (cats, 20 mg/kg body weight), “Very good action”.
As to `CCCCCCCCCCCCCCCCCC(=O)OCOC(=O)N(C)C(=C[N+](=O)[O-])N(CC)Cc1ccc(Cl)nc1` [Compound 1.015], the “action against adult fleas” value in data set [1] is “Very good action”; in data set [2] (cats, 20 mg/kg body weight) it was “Very good action”.
For the compound `CCN(Cc1ccc(Cl)nc1)C(=C[N+](=O)[O-])N(C)C(=O)OCOC(=O)c1ccccc1` [Compound 1.018], the “action against adult fleas” value is reported as “Very good action” in data set [1] and “Very good action” in data set [2] (cats, 20 mg/kg body weight).
Take `CCCCCC(=O)OCOC(=O)N(C)C(=C[N+](=O)[O-])N(CC)Cc1ccc(Cl)nc1` [Compound 1.019]: the “long-term action in a further, fully analogous test” value in data set [1] (pour-on) is “long-term action equally as excellent”.
As for `CCN(Cc1ccc(Cl)nc1)C(=C[N+](=O)[O-])N(C)C(=O)OCOC(=O)c1ccc(C(C)(C)C)cc1` [Compound 1.022], the “action against adult fleas” value was “Very good action” in data set [1] and “Very good action” in data set [2] (cats, 20 mg/kg body weight).
Turning to `CCN(Cc1ccc(Cl)nc1)C(=C[N+](=O)[O-])N(C)C(=O)OCOC(=O)C(C)(C)CC` [Compound 1.056], the “long-term action in a further, fully analogous test” value in data set [1] (pour-on) was “long-term action equally as excellent”.
Same read-out and setting: the result for `CCCCCCC(=O)OCOC(=O)N(C)C(=C[N+](=O)[O-])N(CC)Cc1ccc(Cl)nc1` [Compound 1.057] reads “long-term action equally as excellent”; that for `CCCCCCCCCCC(=O)OCOC(=O)N(C)C(=C[N+](=O)[O-])N(CC)Cc1ccc(Cl)nc1` [Compound 1.058], “long-term action equally as excellent”.
Consider `CCN(Cc1ccc(Cl)nc1)/C(=C\[N+](=O)[O-])NC` [nitenpyram, (E)-N-(6-chloro-3-pyridylmethyl)-N-ethyl-N-methyl-2-nitrovinylidenediamine, reference compound], for which the “period of full action (100% effectiveness)” value in data set [1] (pour-on, 20 mg/kg body weight) was not above 3 weeks. The “period of full action” value in data set [2] (sc, 20 mg/kg) is given as 2 days.
